From patent US6919441B2, “Polyamide-oligonucleotide derivatives, their preparation and use” (Aventis Pharma Deutschland GmbH, priority 1995, dated 2005)

Legend:
N-ras RNA = test: RNase H mediated cleavage of N-ras RNA, cell-free system; type: biochemical; conditions: RNase H from E. coli
Description: The ability to cleave N-ras RNA specifically by PNA-DNA chimera directed against N-ras which can induce RNase H was tested in a cell-free system. First, radioactively labelled N-ras RNA was prepared by in vitro transcription.
The plasmid pMS5-NRAS, which is a derivative of pBluescript II KS (±/−) containing the mutant N-ras sequence (codon 13 GGT→CGT) cloned into XbaI/EcoRI sites, was linearized with EcoR1. After phenol extraction and ethanol precipitation the linear DNA was used as template for in vitro transcription. For transcription, the DNA (5 μg) was incubated in a 100 μl mixture containing 10 mM DTT, 40 mM Tris-HCl pH 7.5, 50 mM NaCl, 8 mM MgCl2, 2 mM spermidine, 500 μM of each rNTP, 80 u RNase-inhibitor, 40 μCi [α-^32P]-(ATP) and 250 u T7 RNA polymerase. After incubation for 1 h at 37° C., the DNA was digested by addition of 25 u DNaseI and further incubation for 30 min at 37° C. After extraction with phenol and chloroform, the aqueous phase was transferred into a Centricon tube and centrifuged at 3410 rpm for 30 min. The RNA was analyzed by PAGE (6% PAA, 8 M urea). For the RNase H cleavage the radioactively labelled N-ras RNA (approximately 0.05 nmol; aqueous solution from above) was hybridized with the PNA-DNA chimera speific for N-ras mRNA (6.5 nmol) by heating to 80° C. and cooling to room temperature. […] The cleavage reactions were analyzed by PAGE (6% PAA, 8 M urea) gel.

TNF-α = test: Inhibition of TNF-α expression in THP-1 cells (ELISA); type: cell-based, human; conditions: 0.1-0,5 μM, Cellfectin, PMA/IFNγ stimulation
Description: Cell Culture. The human monocytic cell line, THP-1 was grown in RPMI 1640 supplemented with L-glutamine (GIBCO BRL, Life Technologies, Inc.), 10% heat inactivated fetal bovine serum (GIBCO BRL) and penicillin (100 U/ml)/streptomycin (100 μg/ml). The NIH3T3 permanently producing human TNFα was maintained in 10% DMEM.
Enzyme Linked Immunosorbent Assays (ELISA) for TNFα. The TNFα level was quantified using ELISA kit (Cat. #DTA50) obtained from R&D Systems (Minneapolis, Minn.).
Assay Methods. THP-1 cells (3×10^6) were seeded in 48-well plates in 0.2 ml of Opti-MEM (GIBCO) medium. In a 96-well plate, varying concentrations of PNA-DNA chimera (20 μl) were each added to 20 μl of Cellfectin in Opti-MEM (2.4 μl of 1 mg/ml Cellfectin added to 17.6 μl Opti-MEM) and incubated for 15 min at room temperature. The mixture was then added to the cells dropwise. The final concentration of the Cellfectin was 10 μg/ml in 0.24 ml of Opti-MEM. After 4 hours at 37° C., 0.48 ml of 15% RPMI medium was added to each well (This dilution step was added to inactivate the Cellfectin). The final concentration of cells was ˜1×10^6 calls/ml in 10% RPMI. The cells were then stimulated with a combination of 100 ng/ml of PMA and 300 U/ml of IFNγ. […] The supernatants were analyzed for TNFα.

| Substance | induction of RNase H mediated cleavage of N-ras RNA (N-ras RNA) | inhibition of TNF-α expression relative to untreated controls (TNF-α) |
| --- | --- | --- |
| 5′-CCAACA-(Oeg(c))-cgacctgct-hex [Example 57] | able to induce RNase H mediated cleavage | – |
| 5′-USCSASGGSUG-(Oeg(t))-cctttgcag-hex [Example 56] | – | 25-35% |
